Assay results: PubChem BioAssay AID1963831 (Molecular Pharmacology Branch, DTP, NCI, 2024)
One block for each molecule: values may come before it.

Test system: 889142-216-R-J1-PDC complex spheroid viability
Experiment: Anticancer human tumor 889142-216-R-J1-PDC patient-derived bladder carcinoma cell line growth inhibition [POLQ]
Settings: for IC50: curve of first compound; for viability, T/C: stronger effect = lower value
Method in brief: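 Complex spheroid viability model combining PDC tumour cells with endothelial (HUVEC) and MSC stromal cells. Novobiocin, ART-558 or RP6685 were tested singly and in combination with standard and investigational anticancer drugs. Each was titrated in half-log steps from near clinical Cmax, or from 10 microM where Cmax was unknown.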

[1] = second compound 0.0316 µM, first compound 0.00316 µM
[2] = second compound 0.0316 µM, first compound 0.01 µM
[3] = second compound 0.0316 µM, first compound 0.0316 µM
[4] = second compound 0.0316 µM, first compound 0.1 µM
[5] = second compound 0.0316 µM, first compound 0.316 µM
[6] = second compound 0.0316 µM, first compound 1 µM
[7] = second compound 0.1 µM, first compound 0.00316 µM
[8] = second compound 0.1 µM, first compound 0.01 µM
[9] = second compound 0.1 µM, first compound 0.0316 µM
[10] = second compound 0.1 µM, first compound 0.1 µM
[11] = second compound 0.1 µM, first compound 0.316 µM
[12] = second compound 0.1 µM, first compound 1 µM
[13] = second compound 0.316 µM, first compound 0.00316 µM
[14] = second compound 0.316 µM, first compound 0.01 µM
[15] = second compound 0.316 µM, first compound 0.0316 µM
[16] = second compound 0.316 µM, first compound 0.1 µM
[17] = second compound 0.316 µM, first compound 0.316 µM
[18] = second compound 0.316 µM, first compound 1 µM
[19] = second compound 1 µM, first compound 0.00316 µM
[20] = second compound 1 µM, first compound 0.01 µM
[21] = second compound 1 µM, first compound 0.0316 µM
[22] = second compound 1 µM, first compound 0.1 µM
[23] = second compound 1 µM, first compound 0.316 µM
[24] = second compound 1 µM, first compound 1 µM
[25] = second compound 3.16 µM, first compound 0.00316 µM
[26] = second compound 3.16 µM, first compound 0.01 µM
[27] = second compound 3.16 µM, first compound 0.0316 µM
[28] = second compound 3.16 µM, first compound 0.1 µM
[29] = second compound 3.16 µM, first compound 0.316 µM
[30] = second compound 3.16 µM, first compound 1 µM
[31] = second compound 10 µM, first compound 0.00316 µM
[32] = second compound 10 µM, first compound 0.01 µM
[33] = second compound 10 µM, first compound 0.0316 µM
[34] = second compound 10 µM, first compound 0.1 µM
[35] = second compound 10 µM, first compound 0.316 µM
[36] = second compound 10 µM, first compound 1 µM
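Further: spheroids exposed to compounds for seven days.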
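Wherever viability, T/C is given: 100% = DMSO vehicle control viability.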

- IC50 (second compound 0.0316 µM): 20.6 nM
- IC50 (second compound 0.1 µM): 17 nM
- IC50 (second compound 0.316 µM): 14 nM
- IC50 (second compound 1 µM): 14.5 nM
- IC50 (second compound 3.16 µM): 19.4 nM
- IC50 (second compound 10 µM): 6.21 nM
SMILES: CCc1c2c(nc3ccc(O)cc13)-c1cc3c(c(=O)n1C2)COC(=O)[C@]3(O)CC + Cc1cccc(N(C)C(=O)C2C(O)CCN2c2nc(C)cc(C(F)(F)F)c2C#N)c1
- viability, T/C [1]: 68.8%
- viability, T/C [2]: 48.8%
- viability, T/C [3]: 50.4%
- viability, T/C [4]: 30.2%
- viability, T/C [5]: 35.8%
- viability, T/C [6]: 10.7%
- viability, T/C [7]: 58.9%
- viability, T/C [8]: 56%
- viability, T/C [9]: 44.7%
- viability, T/C [10]: 34%
- viability, T/C [11]: 28.4%
- viability, T/C [12]: 10.4%
- viability, T/C [13]: 58.4%
- viability, T/C [14]: 57.3%
- viability, T/C [15]: 37.2%
- viability, T/C [16]: 35.6%
- viability, T/C [17]: 27.7%
- viability, T/C [18]: 8.37%
- viability, T/C [19]: 64%
- viability, T/C [20]: 51.3%
- viability, T/C [21]: 39%
- viability, T/C [22]: 35.3%
- viability, T/C [23]: 31.1%
- viability, T/C [24]: 9.07%
- viability, T/C [25]: 60.5%
- viability, T/C [26]: 60.4%
- viability, T/C [27]: 40.9%
- viability, T/C [28]: 34%
- viability, T/C [29]: 30.3%
- viability, T/C [30]: 5.91%
- viability, T/C [31]: 52%
- viability, T/C [32]: 51.9%
- viability, T/C [33]: 35.9%
- viability, T/C [34]: 34.7%
- viability, T/C [35]: 26.1%
- viability, T/C [36]: 6.24%

SMILES: COc1cccc(OCCCN)c1-c1cc(Nc2cnc(C#N)cn2)n[nH]1 + Cc1cccc(N(C)C(=O)C2C(O)CCN2c2nc(C)cc(C(F)(F)F)c2C#N)c1
- IC50 (second compound 0.0316 µM): 93.9 nM
- IC50 (second compound 0.1 µM): 83 nM
- IC50 (second compound 0.316 µM): 29.2 nM
- IC50 (second compound 1 µM): 35.6 nM
- IC50 (second compound 3.16 µM): 143 nM
- IC50 (second compound 10 µM): 27.4 nM
- viability, T/C [1]: 94.4%
- viability, T/C [2]: 65.8%
- viability, T/C [3]: 53.7%
- viability, T/C [4]: 52.1%
- viability, T/C [5]: 49%
- viability, T/C [6]: 45%
- viability, T/C [7]: 93.2%
- viability, T/C [8]: 95.6%
- viability, T/C [9]: 59.3%
- viability, T/C [10]: 52.3%
- viability, T/C [11]: 49.4%
- viability, T/C [12]: 42.9%
- viability, T/C [13]: 118%
- viability, T/C [14]: 62.3%
- viability, T/C [15]: 48.2%
- viability, T/C [16]: 50.6%
- viability, T/C [17]: 50.5%
- viability, T/C [18]: 39.7%
- viability, T/C [19]: 110%
- viability, T/C [20]: 62%
- viability, T/C [21]: 50.7%
- viability, T/C [22]: 51.7%
- viability, T/C [23]: 56.8%
- viability, T/C [24]: 38.2%
- viability, T/C [25]: 81%
- viability, T/C [26]: 73.6%
- viability, T/C [27]: 63.8%
- viability, T/C [28]: 46.2%
- viability, T/C [29]: 49.8%
- viability, T/C [30]: 51.8%
- viability, T/C [31]: 74.8%
- viability, T/C [32]: 73.5%
- viability, T/C [33]: 46.6%
- viability, T/C [34]: 48.8%
- viability, T/C [35]: 42.7%
- viability, T/C [36]: 43.9%

SMILES: Cn1ncnc1[C@H]1c2n[nH]c(=O)c3cc(F)cc(c23)N[C@@H]1c1ccc(F)cc1 + Cc1cccc(N(C)C(=O)C2C(O)CCN2c2nc(C)cc(C(F)(F)F)c2C#N)c1
- IC50 (second compound 0.0316 µM): > 100 nM
- IC50 (second compound 0.1 µM): > 100 nM
- IC50 (second compound 0.316 µM): > 100 nM
- IC50 (second compound 1 µM): > 100 nM
- IC50 (second compound 3.16 µM): > 100 nM
- IC50 (second compound 10 µM): > 100 nM
- viability, T/C (second compound 0.0316 µM, first compound 0.000316 µM): 100%
- viability, T/C (second compound 0.0316 µM, first compound 0.001 µM): 93.9%
- viability, T/C [1]: 132%
- viability, T/C [2]: 74%
- viability, T/C [3]: 85.1%
- viability, T/C [4]: 67.8%
- viability, T/C (second compound 0.1 µM, first compound 0.000316 µM): 128%
- viability, T/C (second compound 0.1 µM, first compound 0.001 µM): 101%
- viability, T/C [7]: 130%
- viability, T/C [8]: 104%
- viability, T/C [9]: 87.9%
- viability, T/C [10]: 71.3%
- viability, T/C (second compound 0.316 µM, first compound 0.000316 µM): 109%
- viability, T/C (second compound 0.316 µM, first compound 0.001 µM): 111%
- viability, T/C [13]: 91.7%
- viability, T/C [14]: 93.1%
- viability, T/C [15]: 80.4%
- viability, T/C [16]: 65.5%
- viability, T/C (second compound 1 µM, first compound 0.000316 µM): 97.5%
- viability, T/C (second compound 1 µM, first compound 0.001 µM): 110%
- viability, T/C [19]: 92%
- viability, T/C [20]: 92.9%
- viability, T/C [21]: 81.9%
- viability, T/C [22]: 72.9%
- viability, T/C (second compound 3.16 µM, first compound 0.000316 µM): 109%
- viability, T/C (second compound 3.16 µM, first compound 0.001 µM): 105%
- viability, T/C [25]: 82.7%
- viability, T/C [26]: 73.6%
- viability, T/C [27]: 75.5%
- viability, T/C [28]: 73.4%
- viability, T/C (second compound 10 µM, first compound 0.000316 µM): 83.8%
- viability, T/C (second compound 10 µM, first compound 0.001 µM): 71.6%
- viability, T/C [31]: 69.1%
- viability, T/C [32]: 77.1%
- viability, T/C [33]: 81.5%
- viability, T/C [34]: 62.5%

SMILES: O=C(c1cc(Cc2n[nH]c(=O)c3ccccc23)ccc1F)N1CCN(C(=O)C2CC2)CC1 + Cc1cccc(N(C)C(=O)C2C(O)CCN2c2nc(C)cc(C(F)(F)F)c2C#N)c1
- IC50 (second compound 0.0316 µM): > 10000 nM
- IC50 (second compound 0.1 µM): > 10000 nM
- IC50 (second compound 0.316 µM): > 10000 nM
- IC50 (second compound 1 µM): > 10000 nM
- IC50 (second compound 3.16 µM): > 10000 nM
- IC50 (second compound 10 µM): > 10000 nM
- viability, T/C [3]: 103%
- viability, T/C [4]: 99.7%
- viability, T/C [5]: 108%
- viability, T/C [6]: 83.3%
- viability, T/C (second compound 0.0316 µM, first compound 3.16 µM): 70.1%
- viability, T/C (second compound 0.0316 µM, first compound 10 µM): 65%
- viability, T/C [9]: 106%
- viability, T/C [10]: 116%
- viability, T/C [11]: 95%
- viability, T/C [12]: 98.2%
- viability, T/C (second compound 0.1 µM, first compound 3.16 µM): 87.9%
- viability, T/C (second compound 0.1 µM, first compound 10 µM): 63.6%
- viability, T/C [15]: 92.2%
- viability, T/C [16]: 98.8%
- viability, T/C [17]: 97.5%
- viability, T/C [18]: 80.8%
- viability, T/C (second compound 0.316 µM, first compound 3.16 µM): 72%
- viability, T/C (second compound 0.316 µM, first compound 10 µM): 64.3%
- viability, T/C [21]: 105%
- viability, T/C [22]: 98.5%
- viability, T/C [23]: 84.7%
- viability, T/C [24]: 77.3%
- viability, T/C (second compound 1 µM, first compound 3.16 µM): 88.5%
- viability, T/C (second compound 1 µM, first compound 10 µM): 68.5%
- viability, T/C [27]: 91.3%
- viability, T/C [28]: 91.7%
- viability, T/C [29]: 88.8%
- viability, T/C [30]: 81.5%
- viability, T/C (second compound 3.16 µM, first compound 3.16 µM): 73.7%
- viability, T/C (second compound 3.16 µM, first compound 10 µM): 52.9%
- viability, T/C [33]: 81.8%
- viability, T/C [34]: 81.3%
- viability, T/C [35]: 68.7%
- viability, T/C [36]: 85.8%
- viability, T/C (second compound 10 µM, first compound 3.16 µM): 70.1%
- viability, T/C (second compound 10 µM, first compound 10 µM): 52.4%
